Consider 46 compounds from patent publication US20250171459A1, “2-METHYL-4',5'-DIHYDROSPIRO[PIPERIDINE-4,7'-THIENO[2,3-C]PYRAN] DERIVATIVES AS INHIBITORS OF APOL1 AND METHODS OF USING SAME” (Vertex Pharmaceuticals Incorporated, priority 2022, published 2025).

The target in this experiment is T1, APOL1 (Homo sapiens, UniProt O14791).
T1 sequence (O14791 1-398 S342G/I384M): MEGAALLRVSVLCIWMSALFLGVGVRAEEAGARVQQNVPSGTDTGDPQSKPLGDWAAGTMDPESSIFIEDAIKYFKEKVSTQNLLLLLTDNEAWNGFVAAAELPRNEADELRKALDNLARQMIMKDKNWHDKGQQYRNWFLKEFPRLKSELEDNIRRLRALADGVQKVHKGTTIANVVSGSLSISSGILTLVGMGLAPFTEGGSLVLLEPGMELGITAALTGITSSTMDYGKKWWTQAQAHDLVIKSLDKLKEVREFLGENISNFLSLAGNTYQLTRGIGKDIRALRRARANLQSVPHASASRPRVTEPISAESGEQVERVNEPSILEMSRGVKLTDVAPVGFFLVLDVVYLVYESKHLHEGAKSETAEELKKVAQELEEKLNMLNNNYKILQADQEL
Description: MultiTox-Fluor Multiplex Cytotoxicity Assay in tet-inducible APOL1 T-REx-HEK293 cells (cell rescue, ratio of dead to live cells). In kind it is cell-based. To be noted: tet-inducible transgenic APOL1 T-REx-HEK293 cell lines, 50 ng/mL tet, 24 hours; read-out: IP50 (i.e., IC50 for cell proliferation). Put shortly: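 T-REx-HEK293 cells with tet-inducible APOL1 were treated with compound (10 μM top, 10-point 3-fold dilution, duplicate) plus 50 ng/mL tetracycline for 24 h at 37° C, in DMEM with 2% tet-free FBS. MultiTox-Fluor protease signals gave a dead/live ratio, normalized to no tet (100% viability) and tet alone (0%).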

For the compound `C[C@H]1C[C@@]2(CCN1Cc1cnn(C[C@@H](O)C(C)(C)O)c1)OCCc1c2sc(C(F)(F)F)c1CO` [Compound 888, (2R)-1-[4-[[(2′S, 7R)-3-(hydroxymethyl)-2′-methyl-2-(trifluoromethyl)spiro[4,5-dihydrothieno[2,3-c]pyran-7,4′-piperidine]-1′-yl]methyl]pyrazol-1-yl]-3-methyl-butane-2,3-diol], the IC50 was less than 100 nM.
On to `C[C@H]1C[C@@]2(CCN1Cc1cnn(C[C@H](O)C(C)(C)O)c1)OC[C@@H](O)c1cc(C(F)(F)F)sc12` [Compound 889, (2S)-1-[4-[[(2′S,4S,7R)-4-hydroxy-2′-methyl-2-(trifluoromethyl)spiro[4,5-dihydrothieno[2,3-c]pyran-7,4′-piperidine]-1′-yl]methyl]pyrazol-1-yl]-3-methyl-butane-2,3-diol], for which the IC50 is less than 100 nM.
The figure for `C[C@H]1C[C@@]2(CCN1Cc1cnn(C[C@@H](O)C(C)(C)O)c1)OC[C@@H](O)c1cc(C(F)(F)F)sc12` [Compound 890, (2R)-1-[4-[[(2′S,4S,7R)-4-hydroxy-2′-methyl-2-(trifluoromethyl)spiro[4,5-dihydrothieno[2,3-c]pyran-7,4′-piperidine]-1′-yl]methyl]pyrazol-1-yl]-3-methyl-butane-2,3-diol] is less than 100 nM; for `CC(C)C(O)Cn1cc(CN2CC[C@]3(C[C@@H]2C)OCCc2c3sc(C(F)(F)F)c2CO)cn1` (stereo partly drawn) [Compound 891, 1-[4-[[(2′S, 7R)-3-(hydroxymethyl)-2′-methyl-2-(trifluoromethyl)spiro[4,5-dihydrothieno[2,3-c]pyran-7,4′-piperidine]-1′-yl]methyl]pyrazol-1-yl]-3-methyl-butan-2-ol] it is less than 100 nM; for `C[C@H]1C[C@@]2(CCN1Cc1cnn(CC(O)CC(F)(F)F)c1)OCCc1c2sc(C(F)(F)F)c1CO` (stereo partly shown) [Compound 892] it is less than 100 nM.
The figure for `C[C@H]1C[C@@]2(CCN1Cc1cnn(CC(O)COCC(F)(F)F)c1)OCCc1c2sc(C(F)(F)F)c1CO` (stereo partly shown) [Compound 893] is less than 100 nM; for `C[C@H]1C[C@@]2(CCN1Cc1cnn(CC(O)C(F)(F)F)c1)OCCc1c2sc(C(F)(F)F)c1CO` (stereo partly shown) [Compound 894] it is less than 100 nM.
The figure for `C[C@H]1C[C@@]2(CCN1Cc1cnn(CC(C)(C)O)c1)OCCc1c2sc(C(F)(F)F)c1CO` [Compound 895] is less than 100 nM; for `C[C@H]1C[C@@]2(CCN1Cc1cnn(CCC(N)=O)c1)OCCc1c2sc(C(F)(F)F)c1CO` [Compound 896, 3-[4-[[(2′S, 7R)-3-(hydroxymethyl)-2′-methyl-2-(trifluoromethyl)spiro[4,5-dihydrothieno[2,3-c]pyran-7,4′-piperidine]-1′-yl]methyl]pyrazol-1-yl]propanamide] it is less than 100 nM.
Regarding `C[C@H]1C[C@@]2(CCN1Cc1cnn(CC(=O)N(C)C)c1)OCCc1c2sc(C(F)(F)F)c1CO` [Compound 897], the IC50 is less than 100 nM.
The result for `C[C@H]1C[C@@]2(CCN1Cc1cnn(CCCC(N)=O)c1)OCCc1c2sc(C(F)(F)F)c1CO` [Compound 898] reads less than 100 nM; that for `C[C@H]1C[C@@]2(CCN1Cc1cnn(C[C@H](O)CO)c1)OCCc1c2sc(C(F)(F)F)c1CO` [Compound 899], 100 to 500 nM; that for `CCNC(=O)CCn1cc(CN2CC[C@]3(C[C@@H]2C)OCCc2c3sc(C(F)(F)F)c2CO)cn1` [Compound 900], less than 100 nM.
The result for `CNC(=O)Cn1cc(CN2CC[C@]3(C[C@@H]2C)OCCc2c3sc(C(F)(F)F)c2CO)cn1` [Compound 901] reads less than 100 nM; that for `C[C@H]1C[C@@]2(CCN1Cc1cnn(Cc3cnccn3)c1)OCCc1c2sc(C(F)(F)F)c1CO` [Compound 902], less than 100 nM; that for `C[C@H]1C[C@@]2(CCN1Cc1cnn(CC(=O)NC3CC3)c1)OCCc1c2sc(C(F)(F)F)c1CO` [Compound 903], less than 100 nM.
The figure for `CCN(CC)C(=O)Cn1cc(CN2CC[C@]3(C[C@@H]2C)OCCc2c3sc(C(F)(F)F)c2CO)cn1` [Compound 904] is less than 100 nM; for `C[C@H]1C[C@@]2(CCN1Cc1cnn(CC3CCOCC3)c1)OCCc1c2sc(C(F)(F)F)c1CO` [Compound 905] it is less than 100 nM.
`COCCn1cc(CN2CC[C@]3(C[C@@H]2C)OCCc2c3sc(C(F)(F)F)c2CO)cn1` [Compound 906]: the IC50 is less than 100 nM.
The result for `C[C@H]1C[C@@]2(CCN1Cc1cnn(C3CS(=O)(=O)C3)c1)OCCc1c2sc(C(F)(F)F)c1CO` [Compound 907] reads less than 100 nM.
The figure for `C[C@@H](CO)Cn1cc(CN2CC[C@]3(C[C@@H]2C)OCCc2c3sc(C(F)(F)F)c2CO)cn1` [Compound 908] is less than 100 nM; for `CC(C)NC(=O)Cn1cc(CN2CC[C@]3(C[C@@H]2C)OCCc2c3sc(C(F)(F)F)c2CO)cn1` [Compound 909] it is less than 100 nM; for `C[C@H]1C[C@@]2(CCN1Cc1cnn(CC3(C)COC3)c1)OCCc1c2sc(C(F)(F)F)c1CO` [Compound 910] it is 100 to 500 nM.
As to `C[C@H]1C[C@@]2(CCN1Cc1cnn(C3CCS(=O)(=O)C3)c1)OCCc1c2sc(C(F)(F)F)c1CO` (stereo partly drawn) [Compound 911, [(2′S, 7R)-1′-[[1-(1,1-dioxothiolan-3-yl)pyrazol-4-yl]methyl]-2′-methyl-2-(trifluoromethyl)spiro[4,5-dihydrothieno[2,3-c]pyran-7,4′-piperidine]-3-yl]methanol], the IC50 is less than 100 nM.
The result for `Cc1cnc(Cn2cc(CN3CC[C@]4(C[C@@H]3C)OCCc3c4sc(C(F)(F)F)c3CO)cn2)cn1` [Compound 912] reads less than 100 nM.
Take `C[C@H]1C[C@@]2(CCN1Cc1cnn(CC(=O)NCC(F)F)c1)OCCc1c2sc(C(F)(F)F)c1CO` [Compound 913]: the IC50 was less than 100 nM.
The figure for `C[C@H]1C[C@@]2(CCN1Cc1cnn(Cc3nnnn3C)c1)OCCc1c2sc(C(F)(F)F)c1CO` [Compound 914] is less than 100 nM; for `C[C@H]1C[C@@]2(CCN1Cc1cnn(CC3(CO)COC3)c1)OCCc1c2sc(C(F)(F)F)c1CO` [Compound 915] it is less than 100 nM; for `CNS(=O)(=O)CCn1cc(CN2CC[C@]3(C[C@@H]2C)OCCc2c3sc(C(F)(F)F)c2CO)cn1` [Compound 916] it is less than 100 nM.
The result for `C[C@H]1C[C@@]2(CCN1Cc1cnn(CC3CCNC(=O)C3)c1)OCCc1c2sc(C(F)(F)F)c1CO` (stereo partly shown) [Compound 917] reads less than 100 nM; that for `C[C@H]1C[C@@]2(CCN1Cc1cnn(C[C@H](O)CC#N)c1)OCCc1c2sc(C(F)(F)F)c1CO` [Compound 918], less than 100 nM; that for `C[C@H]1C[C@@]2(CCN1Cc1cnn(Cc3nnco3)c1)OCCc1c2sc(C(F)(F)F)c1CO` [Compound 919], less than 100 nM.
On to `C[C@H]1C[C@@]2(CCN1Cc1cnn(Cc3nnc[nH]3)c1)OCCc1c2sc(C(F)(F)F)c1CO` [Compound 920], for which the IC50 was in the range of 100 to 500 nM.
The result for `C[C@H]1C[C@@]2(CCN1Cc1cnn(CC3CNC(=O)C3)c1)OCCc1c2sc(C(F)(F)F)c1CO` (stereo partly shown) [Compound 921] reads less than 100 nM; that for `C[C@H]1C[C@@]2(CCN1Cc1cnn(C[C@@H]3CCC(=O)N3)c1)OCCc1c2sc(C(F)(F)F)c1CO` [Compound 922], less than 100 nM.
In the case of `Cc1nnc(Cn2cc(CN3CC[C@]4(C[C@@H]3C)OCCc3c4sc(C(F)(F)F)c3CO)cn2)o1` [Compound 923], the IC50 was less than 100 nM.
The result for `C[C@H]1C[C@@]2(CCN1Cc1cnn(CS(=O)(=O)N(C)C)c1)OCCc1c2sc(C(F)(F)F)c1CO` [Compound 924] reads less than 100 nM; that for `CC(c1nnc[nH]1)n1cc(CN2CC[C@]3(C[C@@H]2C)OCCc2c3sc(C(F)(F)F)c2CO)cn1` (stereo partly shown) [Compound 925], 100 to 500 nM; that for `C[C@H]1C[C@@]2(CCN1Cc1cnn(CCC(N)=O)c1)OC[C@@H](O)c1cc(C(F)(F)F)sc12` [Compound 926], less than 100 nM.
With `C[C@H]1C[C@@]2(CCN1Cc1cnn(CCCC(N)=O)c1)OC[C@@H](O)c1cc(C(F)(F)F)sc12` [Compound 927], the IC50 is less than 100 nM.
The result for `C[C@H]1C[C@@]2(CCN1Cc1cnn(CC(=O)NC3CC3)c1)OC[C@@H](O)c1cc(C(F)(F)F)sc12` [Compound 928] reads less than 100 nM.
The result for `C=C(CO)n1cc(CN2CC[C@]3(C[C@@H]2C)OCCc2c3sc(C(F)(F)F)c2CO)cn1` [Compound 929, 2-[4-[[(2′S,7R)-3-(hydroxymethyl)-2′-methyl-2-(trifluoromethyl)spiro[4,5-dihydrothieno[2,3-c]pyran-7,4′-piperidine]-1′-yl]methyl]pyrazol-1-yl]prop-2-en-1-ol] reads less than 100 nM.
`C[C@H]1C[C@@]2(CCN1Cc1cnn(CC(O)C3(O)CCOCC3)c1)OCCc1c2sc(C(F)(F)F)c1CO` (stereo partly drawn) [Compound 930, 4-[1-hydroxy-2-[4-[[(2′S, 7R)-3-(hydroxymethyl)-2′-methyl-2-(trifluoromethyl)spiro[4,5-dihydro-thieno[2,3-c]pyran-7,4′-piperidine]-1′-yl]methyl]pyrazol-1-yl]ethyl]tetrahydropyran-4-ol]: the IC50 was less than 100 nM.
In the case of `CC(O)Cn1cc(CN2CC[C@]3(C[C@@H]2C)OCCc2c3sc(C(F)(F)F)c2CO)cn1` (stereo partly shown) [Compound 931], the IC50 was less than 100 nM.
The figure for `C[C@H]1C[C@@]2(CCN1Cc1cnn(CC(O)C(N)=O)c1)OCCc1c2sc(C(F)(F)F)c1CO` (stereo partly shown) [Compound 932] is less than 100 nM; for `C[C@H]1C[C@@]2(CCN1Cc1cnn(CC(O)C3(O)COC3)c1)OCCc1c2sc(C(F)(F)F)c1CO` (stereo partly shown) [Compound 933] it is less than 100 nM.
